Test results published in publication PMC4335062, “Data-Driven Prediction and Design of bZIP Coiled-Coil Interactions” (PLoS Computational Biology, 2015).
Like-named read-outs stand apart in the source and are kept apart here. Where no end group is shown, it is not given here.

Columns and labels:
Assay in all cases: Direct-binding FRET assay
NFE2L3 = target: T1, NFE2L3 (Homo sapiens, UniProt Q9Y4A8); details: read-out: Kd
T1 construct: made in house
T1 sequence (Q9Y4A8 578-641 limits assumed): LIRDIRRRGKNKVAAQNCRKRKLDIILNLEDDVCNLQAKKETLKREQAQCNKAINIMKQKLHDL
Procedure: (§1) The direct binding assay was performed manually in 384-well plates and is similar to a previously described assay. Wells were filled with 20 μL of 1 mM TCEP-HCl. A 4 μM stock of acceptor protein was made fresh in 1 mM TCEP-HCl, and 20 μL was titrated in 2-fold dilutions over the wells. […] The direct-binding FRET data were fit as previously described. Briefly, the Kd of the designed peptide homodimer was experimentally determined and used with previously determined target homodimer Kd values to determine the heterodimer Kd. The homodimer Kd values used for the human bZIPs were from; experiments done by […] et al. used the same protein constructs for the human bZIP proteins, the same buffer conditions, and the same assay. The fitting used a system of ordinary differential equations to describe the concentrations of homo and heterodimers formed by the donor (D) and acceptor (A) as a function of the heterodimer Kd. MATLAB was used to simulate the binding experiment for different Kd values, and the value that gave the best agreement between simulation and experiment was assigned. A minimum 15% change in the donor fluorescence upon titrating the acceptor peptide from 0 to 1000 nM was required for a fit to be attempted. If this minimum was not met, the interaction was classified as “NS” for no signal change. […] For such curves, we removed the first five points and re-fit the data.

NFE2 = target: T2, NFE2 (Homo sapiens, UniProt Q16621); details: read-out: Kd
T2 construct: made in house
T2 sequence (Q16621 266-329 limits assumed): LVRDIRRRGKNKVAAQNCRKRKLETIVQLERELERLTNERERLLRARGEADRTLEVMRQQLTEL
Procedure: as §1

MAFF = target: T3, MAFF (Homo sapiens, UniProt Q9ULX9); details: read-out: Kd
T3 construct: made in house
T3 sequence (Q9ULX9 51-114 limits assumed): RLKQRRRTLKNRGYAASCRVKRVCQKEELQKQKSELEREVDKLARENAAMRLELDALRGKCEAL
Procedure: as §1

BATF = target: T4, BATF (Homo sapiens, UniProt Q16520); details: read-out: Kd
T4 construct: made in house
T4 sequence (Q16520 26-89 limits assumed): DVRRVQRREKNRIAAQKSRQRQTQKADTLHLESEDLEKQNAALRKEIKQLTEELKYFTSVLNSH
Procedure, shortened: (§2)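 Acceptor protein, prepared fresh as a 4 μM stock in 1 mM TCEP-HCl, was titrated in 2-fold dilutions in 1 mM TCEP-HCl. Heterodimer Kd was obtained by ODE-based simulation, using the measured designed-peptide homodimer Kd and earlier target homodimer Kd values, and taking the best-fitting Kd.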

BATF2 = target: T5, BATF2 (Homo sapiens, UniProt Q8N1L9); details: read-out: Kd
T5 construct: made in house
T5 sequence (Q8N1L9 17-80 limits assumed): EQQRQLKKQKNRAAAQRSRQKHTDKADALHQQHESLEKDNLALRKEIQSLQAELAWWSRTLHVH
Procedure, shortened: as §2

ATF2 = target: T6, ATF2 (Homo sapiens, UniProt P15336); details: read-out: Kd
T6 construct: made in house
T6 sequence (P15336 352-415 limits assumed): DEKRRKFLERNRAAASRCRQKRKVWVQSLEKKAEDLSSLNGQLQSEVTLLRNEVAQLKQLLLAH
Procedure, shortened: as §2

CREB3 = target: T7, CREB3 (Homo sapiens, UniProt O43889); details: mean or single, read-out: Kd
T7 construct: made in house
T7 sequence (O43889 150-213 limits assumed): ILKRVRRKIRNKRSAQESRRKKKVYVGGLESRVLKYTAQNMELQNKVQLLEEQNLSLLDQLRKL
Procedure, shortened: as §2

NFE2L2 = target: T8, NFE2L2 (Homo sapiens, UniProt Q16236); details: read-out: Kd
T8 construct: made in house
T8 sequence (Q16236 497-560 limits assumed): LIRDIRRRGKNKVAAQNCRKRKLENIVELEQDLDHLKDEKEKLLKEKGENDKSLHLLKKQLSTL
Procedure, shortened: as §2

[1] = 4°C, C-terminal rhodamine design, repeat 1
[2] = 4°C, N-terminal rhodamine design, mean or single
[3] = 23°C, C-terminal rhodamine design, repeat 1
[4] = 23°C, N-terminal rhodamine design, mean or single
[5] = 37°C, C-terminal rhodamine design, repeat 1
[6] = 37°C, N-terminal rhodamine design, mean or single
[7] = 4°C, C-terminal fluorescein design as donor, TAMRA target titrated
[8] = 37°C, C-terminal fluorescein design as donor, TAMRA target titrated
[9] = 37°C, C-terminal rhodamine design, repeat 2
[10] = 4°C, C-terminal rhodamine design, mean or single
[11] = 23°C, C-terminal rhodamine design, repeat 2
[12] = 23°C, C-terminal fluorescein design as donor, TAMRA target titrated
[13] = 23°C, C-terminal rhodamine design, mean or single
[14] = 37°C, C-terminal rhodamine design, mean or single

Sequence: NQIKTLRTRLSKLRKDNLQLEKDIANLERKAKDLRAEKEQLEYEL [ATF4-d1]
- Kd (NFE2L3; [1]): > 5000 nM
- Kd (NFE2L3; [2]): > 1000 nM
- Kd (NFE2L3; [3]): > 5000 nM
- Kd (NFE2L3; [4]): > 1000 nM
- Kd (NFE2L3; [5]): > 5000 nM
- Kd (NFE2L3; [6]): > 1000 nM
- Kd (NFE2; [7]): 42.4 nM
- Kd (NFE2; [2]): > 5000 nM
- Kd (NFE2; [3]): 200 to 1000 nM
- Kd (NFE2; [4]): > 1000 nM
- Kd (NFE2; [8]): > 1000 nM
- Kd (NFE2; [5]): > 5000 nM
- Kd (NFE2; [9]): > 5000 nM
- Kd (NFE2; [6]): > 1000 nM
- Kd (MAFF; [10]): > 5000 nM
- Kd (MAFF; [2]): < 200 nM
- Kd (MAFF; [3]): > 5000 nM
- Kd (MAFF; [11]): < 200 nM
- Kd (MAFF; [4]): > 1000 nM
- Kd (MAFF; [5]): < 200 nM
- Kd (MAFF; [9]): < 200 nM
- Kd (MAFF; [6]): > 1000 nM
- Kd (BATF; [10]): > 1000 nM
- Kd (BATF; [2]): > 5000 nM
- Kd (BATF; [12]): > 1000 nM
- Kd (BATF; [13]): > 1000 nM
- Kd (BATF; [4]): > 1000 nM
- Kd (BATF; [8]): > 1000 nM
- Kd (BATF; [14]): > 1000 nM
- Kd (BATF; [6]): > 1000 nM
- Kd (BATF2; [7]): > 1000 nM
- Kd (BATF2; [10]): > 1000 nM
- Kd (BATF2; [2]): > 1000 nM
- Kd (BATF2; [12]): > 1000 nM
- Kd (BATF2; [13]): > 1000 nM
- Kd (BATF2; [4]): > 1000 nM
- Kd (BATF2; [8]): > 1000 nM
- Kd (BATF2; [14]): > 1000 nM
- Kd (BATF2; [6]): > 1000 nM
- Kd (ATF2; [7]): > 5000 nM
- Kd (ATF2; [1]): > 5000 nM
- Kd (ATF2; [2]): > 1000 nM
- Kd (ATF2; [12]): > 1000 nM
- Kd (ATF2; [3]): > 1000 nM
- Kd (ATF2; [4]): > 1000 nM
- Kd (ATF2; [8]): > 5000 nM
- Kd (ATF2; [5]): > 5000 nM
- Kd (ATF2; [6]): > 1000 nM
- Kd (CREB3; 4°C, C-terminal rhodamine design): > 1000 nM
- Kd (CREB3; 4°C, N-terminal rhodamine design): > 1000 nM
- Kd (CREB3; 23°C, C-terminal rhodamine design): > 1000 nM
- Kd (CREB3; 23°C, N-terminal rhodamine design): > 1000 nM
- Kd (CREB3; 37°C, C-terminal rhodamine design): > 5000 nM
- Kd (CREB3; 37°C, N-terminal rhodamine design): > 1000 nM
- Kd (NFE2L2; [7]): > 5000 nM
- Kd (NFE2L2; [2]): 47.9 nM
- Kd (NFE2L2; [12]): > 1000 nM
- Kd (NFE2L2; [13]): > 5000 nM
- Kd (NFE2L2; [3]): > 5000 nM
- Kd (NFE2L2; [11]): > 5000 nM
- Kd (NFE2L2; 23°C, C-terminal rhodamine design, repeat 3): > 5000 nM
- Kd (NFE2L2; [4]): > 1000 nM
- Kd (NFE2L2; [8]): > 1000 nM
- Kd (NFE2L2; [5]): > 1000 nM
- Kd (NFE2L2; [9]): > 1000 nM
- Kd (NFE2L2; 37°C, C-terminal rhodamine design, repeat 3): > 5000 nM
- Kd (NFE2L2; [6]): > 1000 nM
